Among the data in ChEMBL document CHEMBL1909046, “DrugMatrix in vitro pharmacology data” are IC50 and Ki values, retold here.

One series has as its target T1, Calcitonin receptor (Homo sapiens, UniProt P30988). Further: in other assays of this panel Not Active means under 50% inhibition at 10 µM.
T1 sequence (P30988 whole entry): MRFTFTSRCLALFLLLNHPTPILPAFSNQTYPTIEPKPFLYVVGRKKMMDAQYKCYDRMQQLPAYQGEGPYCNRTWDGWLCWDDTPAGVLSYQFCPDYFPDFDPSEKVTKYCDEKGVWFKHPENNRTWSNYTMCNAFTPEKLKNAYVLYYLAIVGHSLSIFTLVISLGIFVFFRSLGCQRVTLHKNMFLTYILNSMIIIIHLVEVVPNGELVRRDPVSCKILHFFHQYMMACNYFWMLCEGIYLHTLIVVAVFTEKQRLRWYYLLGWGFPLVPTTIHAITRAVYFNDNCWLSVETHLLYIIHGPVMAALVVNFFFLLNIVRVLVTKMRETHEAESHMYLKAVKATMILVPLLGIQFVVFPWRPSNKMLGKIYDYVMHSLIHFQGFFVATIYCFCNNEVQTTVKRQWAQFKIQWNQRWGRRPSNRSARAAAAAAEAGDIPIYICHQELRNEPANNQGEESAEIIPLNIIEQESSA
In kind it is cell membranes, Membrane. The settings on record: t47d.

The target of series [1] is Sigma non-opioid intracellular receptor 1 (Homo sapiens, UniProt Q99720). Description: DRUGMATRIX: Sigma1 radioligand binding (ligand: [3H] Haloperidol). It is filed as cell membranes, Jurkat, Membrane. The following applies: Not Active = under 50% inhibition at 10 µM.
Sigma non-opioid intracellular receptor 1, sequence (Q99720 whole entry): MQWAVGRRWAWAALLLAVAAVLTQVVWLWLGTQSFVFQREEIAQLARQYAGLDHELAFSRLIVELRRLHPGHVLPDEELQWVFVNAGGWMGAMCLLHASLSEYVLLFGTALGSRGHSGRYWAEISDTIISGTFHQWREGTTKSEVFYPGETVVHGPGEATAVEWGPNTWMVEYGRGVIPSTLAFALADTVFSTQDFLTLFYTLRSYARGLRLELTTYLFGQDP
A short description of series [2]: DRUGMATRIX: GABAA, Chloride Channel, TBOB radioligand binding (ligand: [3H] TBOB). In kind it is cell membranes, Rattus norvegicus, Wistar, Cerebral cortex, Membrane. The settings on record: Not Active = under 50% inhibition at 10 µM.
Series [3] has as its target Protein kinase C alpha type (Homo sapiens, UniProt P17252). In kind it is cell-based. The settings on record: sf9.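 Further: inhibition of PKCalpha kinase activity measured in an enzyme assay with histone as the phosphorylation substrate; in other assays of this panel Not Active means under 50% inhibition at 10 µM.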
In series [4] the target is Tyrosine-protein kinase Fyn (Homo sapiens, UniProt P06241). Description: biochemical. It is filed as cell-based, Insect cells. The settings on record: insect cells.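 Further: enzymatic inhibition of Fyn kinase activity measured with Poly(Glu:Tyr) as the phosphorylation substrate; in other assays of this panel Not Active means under 50% inhibition at 10 µM.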
Tyrosine-protein kinase Fyn, sequence (P06241 whole entry): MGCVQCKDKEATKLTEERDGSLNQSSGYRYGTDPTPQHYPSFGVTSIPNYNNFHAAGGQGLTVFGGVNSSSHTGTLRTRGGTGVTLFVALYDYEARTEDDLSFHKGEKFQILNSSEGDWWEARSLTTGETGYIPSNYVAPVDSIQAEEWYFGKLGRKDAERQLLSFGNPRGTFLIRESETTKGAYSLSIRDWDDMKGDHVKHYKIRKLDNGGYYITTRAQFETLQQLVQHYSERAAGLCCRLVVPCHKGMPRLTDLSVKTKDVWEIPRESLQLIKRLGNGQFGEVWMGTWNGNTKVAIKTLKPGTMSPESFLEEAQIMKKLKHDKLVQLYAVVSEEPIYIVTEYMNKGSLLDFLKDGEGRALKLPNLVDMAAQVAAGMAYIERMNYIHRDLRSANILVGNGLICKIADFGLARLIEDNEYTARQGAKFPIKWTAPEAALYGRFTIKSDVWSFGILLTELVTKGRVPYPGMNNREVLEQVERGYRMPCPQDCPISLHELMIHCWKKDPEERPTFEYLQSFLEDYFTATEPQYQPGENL
Series [5] concerns the target T2, Receptor-type tyrosine-protein phosphatase C (Homo sapiens, UniProt P08575).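 Further: inhibition of CD45 enzyme activity measured using DiFMUP as substrate; in other assays of this panel Not Active means under 50% inhibition at 10 µM.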
T2 sequence (P08575 whole entry): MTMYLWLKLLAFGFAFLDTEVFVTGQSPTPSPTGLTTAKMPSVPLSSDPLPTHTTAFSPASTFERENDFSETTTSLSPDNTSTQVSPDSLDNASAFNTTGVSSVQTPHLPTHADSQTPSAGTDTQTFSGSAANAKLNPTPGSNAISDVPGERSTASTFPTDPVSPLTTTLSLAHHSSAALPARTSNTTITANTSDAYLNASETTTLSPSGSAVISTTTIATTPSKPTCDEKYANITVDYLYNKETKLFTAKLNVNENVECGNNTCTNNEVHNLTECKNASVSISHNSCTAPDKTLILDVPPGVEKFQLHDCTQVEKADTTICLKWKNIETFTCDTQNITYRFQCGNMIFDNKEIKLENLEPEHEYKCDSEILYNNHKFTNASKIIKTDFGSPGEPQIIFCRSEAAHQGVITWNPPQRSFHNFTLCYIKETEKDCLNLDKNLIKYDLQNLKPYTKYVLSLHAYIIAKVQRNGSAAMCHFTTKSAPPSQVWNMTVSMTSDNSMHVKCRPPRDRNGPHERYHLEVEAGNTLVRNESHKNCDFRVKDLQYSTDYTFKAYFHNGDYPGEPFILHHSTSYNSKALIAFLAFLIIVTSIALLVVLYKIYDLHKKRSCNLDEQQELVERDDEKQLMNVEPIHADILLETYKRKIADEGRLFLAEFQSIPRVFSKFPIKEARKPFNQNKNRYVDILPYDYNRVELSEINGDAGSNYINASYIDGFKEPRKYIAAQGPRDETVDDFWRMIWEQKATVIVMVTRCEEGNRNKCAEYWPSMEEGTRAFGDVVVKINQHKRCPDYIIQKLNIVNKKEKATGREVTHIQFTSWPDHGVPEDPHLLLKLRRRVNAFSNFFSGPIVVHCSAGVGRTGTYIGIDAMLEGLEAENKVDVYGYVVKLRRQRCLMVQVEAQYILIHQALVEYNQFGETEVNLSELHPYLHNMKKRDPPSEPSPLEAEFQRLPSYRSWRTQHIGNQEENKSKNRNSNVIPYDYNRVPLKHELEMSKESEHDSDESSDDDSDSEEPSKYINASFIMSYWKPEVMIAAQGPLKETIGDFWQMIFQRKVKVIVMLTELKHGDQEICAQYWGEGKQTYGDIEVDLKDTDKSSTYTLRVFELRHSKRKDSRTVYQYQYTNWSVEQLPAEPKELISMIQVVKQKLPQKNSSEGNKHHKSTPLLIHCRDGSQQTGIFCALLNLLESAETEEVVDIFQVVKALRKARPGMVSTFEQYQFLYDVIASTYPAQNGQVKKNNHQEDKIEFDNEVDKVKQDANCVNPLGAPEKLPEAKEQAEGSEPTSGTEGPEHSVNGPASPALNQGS
More on the design: species or system Escherichia coli.

A further series has as its target Cytochrome P450 2E1 (Homo sapiens, UniProt P05181). The following applies: bti-tn-5b1-4. Further: in other assays of this panel Not Active means under 50% inhibition at 10 µM.

Cytochrome P450 2E1, sequence (P05181 whole entry): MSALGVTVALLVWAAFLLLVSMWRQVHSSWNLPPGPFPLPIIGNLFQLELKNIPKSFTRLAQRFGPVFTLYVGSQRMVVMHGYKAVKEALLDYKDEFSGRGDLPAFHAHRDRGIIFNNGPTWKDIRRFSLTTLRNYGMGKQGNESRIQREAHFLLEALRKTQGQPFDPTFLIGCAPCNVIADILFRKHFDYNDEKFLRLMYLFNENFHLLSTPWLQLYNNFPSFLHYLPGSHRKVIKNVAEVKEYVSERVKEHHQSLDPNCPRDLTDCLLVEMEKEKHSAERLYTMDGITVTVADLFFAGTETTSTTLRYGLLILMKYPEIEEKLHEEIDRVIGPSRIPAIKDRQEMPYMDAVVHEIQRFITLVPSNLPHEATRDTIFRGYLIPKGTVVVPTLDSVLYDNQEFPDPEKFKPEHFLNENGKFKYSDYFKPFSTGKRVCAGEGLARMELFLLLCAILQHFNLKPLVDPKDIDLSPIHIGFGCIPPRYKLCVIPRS

What is called IC50 is the concentration needed to halve the response being measured. As usually defined, the Ki is a measure of affinity in units of concentration, obtained from inhibition or displacement. With `O=C(O)c1cn(-c2ccc(F)cc2)c2cc(N3CCNCC3)c(F)cc2c1=O` [SARAFLOXACIN], the IC50 result (on Calcitonin receptor; in series [1] (jurkat); in series [2]; in series [3]; in series [4]; in series [5]) was “Not Active” each time. The IC50 entry against Cytochrome P450 2E1 is “Not Active”. Further, the Ki result (in series [2]; on Cytochrome P450 2E1) was “Not Active” in each case.
With SODIUM ORTHOVANAD, the IC50 result (at Calcitonin receptor; in series [1] (jurkat); in series [2]; in series [3]; in series [4]; in series [5]) was “Not Active” each time. In addition, the IC50 result against Cytochrome P450 2E1 is on record as “Not Active”. The Ki entry (on Calcitonin receptor; in series [1] (jurkat); in series [2]; in series [3]; in series [4]; in series [5]) was “Not Active” throughout. In addition, on Cytochrome P450 2E1, the Ki entry is reported as “Not Active”.
As to `Cn1c(=O)c2nc[nH]c2n(C)c1=O.O` [THEOPHYLLINE], the IC50 result (on Calcitonin receptor; in series [1] (jurkat); in series [2]; in series [3]; in series [4]; in series [5]) was “Not Active” throughout. The IC50 result at Cytochrome P450 2E1 is reported as “Not Active”. Further, the Ki entry (in series [2]; at Cytochrome P450 2E1) was “Not Active” in each case.
With `CO[C@@H]1[C@@H](OC)[C@H](C)[C@@](O)(CC(=O)O)O[C@H]1[C@H](C)[C@H]1O[C@@]2(CC[C@@](C)([C@H]3CC[C@@](C)([C@@H]4O[C@@H]([C@H]5O[C@](C)(O)[C@H](C)C[C@@H]5C)C[C@@H]4O[C@@H]4C[C@H](OC)[C@@H](OC)[C@H](C)O4)O3)O2)C[C@H](O)[C@H]1C` [MADURAMICIN ACID], the IC50 entry (at Calcitonin receptor; in series [1] (jurkat); in series [2]; in series [3]; in series [4]; in series [5]) was “Not Active” in each case. Besides, at Cytochrome P450 2E1, the IC50 result is reported as “Not Active”. Further, the Ki entry (in series [2]; at Cytochrome P450 2E1) was “Not Active” each time.
Take `CCN(CC)CC(=O)Nc1c(C)cccc1C` [LIDOCAINE]: the IC50 result (on Calcitonin receptor; in series [1] (jurkat); in series [2]; in series [3]; in series [4]; in series [5]) was “Not Active” each time. Moreover, the IC50 result on Cytochrome P450 2E1 is “Not Active”. Also, the Ki entry (in series [2]; on Cytochrome P450 2E1) was “Not Active” throughout.
For the compound `CN(C/C=C/C#CC(C)(C)C)Cc1cccc2ccccc12` [TERBINAFINE], the IC50 result was “Not Active” on Calcitonin receptor; 560 nM in series [1] (read-out: IC50); “Not Active” in series [2]; “Not Active” in series [3]; “Not Active” in series [4]; “Not Active” in series [5]. Further, the IC50 entry against Cytochrome P450 2E1 is recorded as “Not Active”. In addition, the results for the Ki (in series [1] (read-out: Ki); in series [2]; at Cytochrome P450 2E1) were 235 nM, “Not Active” and “Not Active”, respectively.
Turning to `CCCCNc1ccc(C(=O)OCCN(C)C)cc1` [TETRACAINE], the IC50 entry at Calcitonin receptor was “Not Active”; in series [1] (read-out: IC50), 1670 nM; in series [2], “Not Active”; in series [3], “Not Active”; in series [4], “Not Active”; in series [5], “Not Active”. In addition, at Cytochrome P450 2E1, the IC50 result was “Not Active”. Also, the Ki in series [1] (read-out: Ki) is 703 nM; in series [2], “Not Active”; on Cytochrome P450 2E1, “Not Active”.
As for `CC[C@@H](C(=O)[C@@H](C)[C@@H](O)[C@H](C)[C@@H]1O[C@@H]([C@@H](CC)C(=O)O)CC[C@@H]1C)[C@H]1O[C@]2(C=C[C@@H](O)[C@]3(CC[C@@](C)([C@H]4CC[C@](O)(CC)[C@H](C)O4)O3)O2)[C@H](C)C[C@@H]1C` [SALINOMYCIN], the IC50 result (at Calcitonin receptor; in series [1] (jurkat); in series [2]; in series [3]; in series [4]; in series [5]) was “Not Active” each time. Further, the IC50 result against Cytochrome P450 2E1 is “Not Active”. For the same compound, the Ki result (in series [2]; at Cytochrome P450 2E1) was “Not Active” throughout.
Take `Clc1ccccc1CN1CCc2sccc2C1` [TICLOPIDINE]: the IC50 entry at Calcitonin receptor was “Not Active”; in series [1] (read-out: IC50), 426 nM; in series [2] it was “Not Active”; in series [3], “Not Active”; in series [4], “Not Active”; in series [5], “Not Active”. Moreover, the IC50 entry at Cytochrome P450 2E1 is given as “Not Active”. The figures for the Ki (in series [1] (read-out: Ki); in series [2]; on Cytochrome P450 2E1) were 179 nM, “Not Active” and “Not Active”, respectively.
Take `CS(=O)(=O)c1ccc([C@@H](O)[C@@H](CO)NC(=O)C(Cl)Cl)cc1` [THIAMPHENICOL]: the IC50 entry (on Calcitonin receptor; in series [1] (jurkat); in series [2]; in series [3]; in series [4]; in series [5]) was “Not Active” each time. On Cytochrome P450 2E1, the IC50 result is “Not Active”. The Ki entry (in series [2]; on Cytochrome P450 2E1) was “Not Active” in each case.
As to `O=C(Oc1ccccc1C(=O)O)c1ccccc1O` [SALSALATE], the IC50 entry (at Calcitonin receptor; in series [1] (jurkat); in series [2]; in series [3]; in series [4]; in series [5]) was “Not Active” throughout. Moreover, on Cytochrome P450 2E1, the IC50 result is recorded as “Not Active”. Also, the Ki entry (in series [2]; at Cytochrome P450 2E1) was “Not Active” throughout.
For `CC(C)NCC(O)c1ccc(NS(C)(=O)=O)cc1` (centres undefined) [SOTALOL], the IC50 result (at Calcitonin receptor; in series [1] (jurkat); in series [2]; in series [3]; in series [4]; in series [5]) was “Not Active” in each case. Also, at Cytochrome P450 2E1, the IC50 result is “Not Active”. Further, the Ki result (in series [2]; on Cytochrome P450 2E1) was “Not Active” in each case.
Take MANGANESE CHLORIDE ANHYDROUS: the IC50 entry (at Calcitonin receptor; in series [1] (jurkat); in series [2]; in series [3]; in series [4]; in series [5]) was “Not Active” in each case. Also, at Cytochrome P450 2E1, the IC50 entry was “Not Active”. In addition, the Ki result (at Calcitonin receptor; in series [1] (jurkat); in series [2]; in series [3]; in series [4]; in series [5]) was “Not Active” throughout. Also, the Ki result at Cytochrome P450 2E1 is on record as “Not Active”.
For the compound `O.O.O.O.O.O.[Cl-].[Cl-].[Sr+2]` [STRONTIUM CHLORIDE HEXAHYDRATE], the IC50 entry (at Calcitonin receptor; in series [1] (jurkat); in series [2]; in series [3]; in series [4]; in series [5]) was “Not Active” each time. Further, the IC50 entry on Cytochrome P450 2E1 is given as “Not Active”. The Ki entry (in series [2]; at Cytochrome P450 2E1) was “Not Active” in each case.
